Source: patent US8354414B2, “Substituted bicyclic pyrimidines” (Cephalon, Inc, priority 2006, dated 2013)
pIC50: −log10 of the molar value. Counter-ions that a name gives are not always drawn. Like-named read-outs stand apart in the source and are kept apart here.

How the values were obtained:
CDK5/GST-p25 = target: T1, CDK5/GST-p25 (Homo sapiens, UniProt Q00535); test: Inhibition of CDK5/GST-p25 kinase activity (ELISA with time-resolved fluorescence readout); type: biochemical
T1 construct: The final construct, encoding for full-length human CDK5; made in house; host or cells: Sf21 insect cells (baculovirus co-infection)
T1 sequence (Q00535 whole entry): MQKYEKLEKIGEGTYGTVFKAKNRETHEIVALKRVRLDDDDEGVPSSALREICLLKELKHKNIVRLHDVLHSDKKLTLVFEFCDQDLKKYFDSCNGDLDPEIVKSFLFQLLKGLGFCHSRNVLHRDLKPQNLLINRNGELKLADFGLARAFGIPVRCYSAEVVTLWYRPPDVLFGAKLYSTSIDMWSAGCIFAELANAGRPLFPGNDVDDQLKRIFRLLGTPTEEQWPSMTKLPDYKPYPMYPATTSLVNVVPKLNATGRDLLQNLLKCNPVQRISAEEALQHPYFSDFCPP
T1 sequence (Q15078 108-307 partner limits assumed): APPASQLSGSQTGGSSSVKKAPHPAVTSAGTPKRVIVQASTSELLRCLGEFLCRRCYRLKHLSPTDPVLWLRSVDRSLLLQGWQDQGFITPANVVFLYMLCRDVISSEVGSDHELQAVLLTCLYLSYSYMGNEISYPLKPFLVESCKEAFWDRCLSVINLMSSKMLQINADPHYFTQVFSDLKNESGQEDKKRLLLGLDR
Method in brief: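 The substrate, GST-Rb(773-928), was immobilised on plates and phosphorylated for 20 min at 37 °C by 2 ng/ml CDK5/GST-p25 in HEPES pH 7.2 with 10 µM ATP and 10 mM MgCl2. Both proteins were human and co-expressed in insect cells. Ser-780 phosphorylation was read by europium time-resolved fluorescence and converted to IC50.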

His6-GSK-3β = target: T2, His6-GSK-3β (Homo sapiens, UniProt P49841); test: Inhibition of His6-GSK-3β kinase activity (ELISA-based format, time-resolved fluorescence readout); type: biochemical; details: for pIC50: read-out: GSK3β IC50
T2 construct: made in house; host or cells: Sf21 insect cells (baculovirus)
T2 sequence (P49841 2-419): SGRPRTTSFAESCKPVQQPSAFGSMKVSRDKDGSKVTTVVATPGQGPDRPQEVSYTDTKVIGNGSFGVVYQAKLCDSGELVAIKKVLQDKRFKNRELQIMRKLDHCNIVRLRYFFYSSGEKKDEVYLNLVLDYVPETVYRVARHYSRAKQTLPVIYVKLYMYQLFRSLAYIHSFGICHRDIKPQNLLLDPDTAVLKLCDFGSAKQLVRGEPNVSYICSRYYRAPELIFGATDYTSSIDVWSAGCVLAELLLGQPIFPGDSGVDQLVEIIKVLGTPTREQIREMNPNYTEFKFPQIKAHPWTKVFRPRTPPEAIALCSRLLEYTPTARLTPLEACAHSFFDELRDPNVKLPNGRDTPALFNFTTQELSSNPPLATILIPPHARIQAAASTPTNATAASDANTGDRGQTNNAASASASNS
Method in brief: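 Plate-bound recombinant GST-Rb substrate was phosphorylated for 30 min at 37° C by baculovirus-expressed His6-GSK-3β (200 ng/ml) at 20 μM ATP, 10 mM MgCl2, 2.5% DMSO. Europium time-resolved fluorescence of anti-phospho-Ser780 Rb signal gave inhibition, fitted to IC50.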

| Structure (SMILES) | melting point | pIC50 (CDK5/GST-p25; class symbols) | pIC50 (His6-GSK-3β; class symbols) | GSK3β % @10 μM (His6-GSK-3β; @10 μM) | pIC50 (His6-GSK-3β; numeric bounds) | pIC50 (CDK5/GST-p25; numeric bounds) |
| --- | --- | --- | --- | --- | --- | --- |
| Cn1cc2c(C3C(=O)Nc4ccc(Br)cc43)nc(NCCN)nc2n1 (stereo not shown) [Example 303, 3-[6-(2-Amino-ethylamino)-2-methyl-2H-pyrazolo [3,4-d]pyrimidin-4-yl]-5-bromo-1,3-dihydro-indol-2-one] | 260 to 262 °C | > 6.52 | 5.52 to 6.52 | – | – | – |
| CC(C)CNc1nc(C2C(=O)Nc3ccc(C(F)(F)F)cc32)c2cn(C3CCCC3)nc2n1 (stereo not shown) [Example 249, 3-(2-Cyclopentyl-6-isobutylamino-2H-pyrazolo[3,4-d]pyrimidin-4-yl)-5-trifluoromethyl-1,3-dihydro-indol-2-one] | 282 to 285 °C | < 5.00 | – | 52% @10 μM | – | – |
| COCCn1cc2c(C3C(=O)Nc4ccc(Br)cc43)nc(NCCN(C)C)nc2n1 (stereo not shown) [Example 229, 5-Bromo-3-[6-(2-dimethylamino-ethylamino)-2-(2-methoxy-ethyl)-2H-pyrazolo[3,4-d]pyrimdin-4-yl]-1,3-dihydro-indol-2-one] | 291 to 292 °C | 5.52 to 6.52 | 5.52 to 6.52 | – | – | – |
| CC(C)Cn1cc2c(C3C(=O)Nc4ccc(Cl)cc43)nc(NCCN(C)C)nc2n1 (stereo not shown) [Example 270, 5-Chloro-3-[6-(2-dimethylamino-ethylamino)-2-isobutyl-2H-pyrazolo[3,4-d]pyrimidin-4-yl]-1,3-dihydro-indol-2-one] | 264 to 265.5 °C | 5.52 to 6.52 | > 6.52 | – | – | – |
| CC(C)Cn1cc2c(C3C(=O)Nc4ccc(Br)cc43)nc(Cl)nc2n1 (stereo not shown) [Example 262, 5-Bromo-3-(6-chloro-2-isobutyl-2H-pyrazolo[3,4-d]pyrimidin-4-yl)-1,3-dihydro-indol-2-one] | 295 °C (dec.) | < 5.00 | – | – | < 5.52 | – |
| O=C1Nc2ccc(Cl)cc2C1c1nc(NCCc2cccnc2)nc2nn(C3CCCC3)cc12 (stereo not shown) [Example 279, 5-Chloro-3-[2-cyclopentyl-6-(2-pyridin-3-yl-ethylamino)-2H-pyrazolo[3,4-d]pyrimidin-4-yl]-1,3-dihydro-indol-2-one] | 277 to 281 °C | 5.52 to 6.52 | > 6.52 | – | – | – |
| O=C1Nc2ccc(Br)cc2C1c1ncnc2nn(C3CCCC3)cc12 (stereo not shown) [Example 31, 5-Bromo-3-(2-Cyclopentyl-2H-pyrazolo[3,4-d]pyrimidin-4-yl)-2-oxo-1,3-dihydro-indol-2-one] | 319 to 322 °C (dec.) | > 6.52 | > 6.52 | – | – | – |
| CCCn1cc2c(C3C(=O)Nc4ccc(Br)cc43)nc(NC[C@@H](C)N)nc2n1 (stereo partly drawn) [Example 369, 3-[6-(2-(R)-Amino-propylamino)-2-propyl-2H-pyrazolo[3,4-d]pyrimidin-4-yl]-5-bromo-1,3-dihydro-indol-2-one] | 247 to 250 °C | 5.52 to 6.52 | > 6.52 | – | – | – |
| CCCCCn1cc2c(C3C(=O)Nc4ccc(C(F)(F)F)cc43)nc(NCCCN)nc2n1 (stereo not shown) [Example 289, 3-[6-(3-Amino-propylamino)-2-pentyl-2H-pyrazolo[3,4-d]pyrimidin-4-yl]-5-trifluoromethyl-1,3-dihydro-indol-2-one] | 235 °C (dec.) | > 6.52 | > 6.52 | – | – | – |
| Cn1cc2c(C3C(=O)Nc4ccc(Br)cc43)ncnc2n1 (stereo not shown) [Example 82, 5-Bromo-3-(2-methyl-2H-pyrazolo[3,4-d]pyrimidin-4-yl)-1,3-dihydro-indol-2-one] | 360 to 365 °C | > 6.52 | 5.52 to 6.52 | – | – | – |
| O=C1Nc2ccc(Cl)cc2C1c1ncnc2nn(C3CCCCC3)cc12 (stereo not shown) [Example 48, 5-Chloro-3-(2-cyclohexyl-2H-pyrazolo[3,4-d]pyrimidin-4-yl)-1,3-dihydro-indol-2-one] | 294 to 298 °C | 5.52 to 6.52 | > 6.52 | – | – | – |
| CC(C)n1cc2c(C3C(=O)Nc4ccc(Cl)cc43)ncnc2n1 (stereo not shown) [Example 381, 5-Chloro-3-(2-isopropyl-2H-pyrazolo[3,4-d]pyrimidin-4-yl)-1,3-dihydro-indol-2-one] | > 300 °C | > 6.52 | 5.52 to 6.52 | – | – | – |
| COCCn1cc2c(C3C(=O)Nc4ccc(Br)cc43)nc(NC[C@H](C)O)nc2n1 (stereo partly drawn) [Example 230, 5-Bromo-3-[6((S)-2-hydroxy-propylamino)-2-(2-methoxy-ethyl)-2H-pyrazolo [3,4-d]pyrimidin-4-yl]-1,3-dihydro-indol-2-one] | > 300 °C | > 6.52 | > 6.52 | – | – | – |
| N#Cc1ccc2c(c1)C(c1nc(N(CCO)CCO)nc3nn(C4CCCC4)cc13)C(=O)N2 (stereo not shown) [Example 168, 3-{6-[bis(2-hydroxyethyl)amino]-2-cyclopentyl-2H-pyrazolo[3,4-d]pyrimidin-4-yl}-2-oxo-2,3-dihydro-1H-indole-5-carbonitrile] | 243 to 243.5 °C | > 6.52 | > 6.52 | – | – | – |
| O=C1Nc2ccc(C(F)(F)F)cc2C1c1nc(NCCCN2CCOCC2)nc2nn(C3CCCC3)cc12 (stereo not shown) [Example 162, 3-[2-cyclopentyl-6-(3-morpholin-4-yl-propylamino)-2H-pyrazolo [3,4-d]pyrimidin-4-yl]-5-trifluoromethyl-1,3-dihydro-indol-2-one] | 288 to 291 °C | – | > 6.52 | – | – | < 6.00 |
| CC(C)CNc1nc(C2C(=O)Nc3ccccc32)c2cn(C3CCCC3)nc2n1 (stereo not shown) [Example 244, 3-(2-Cyclopentyl-6-isobutylamino-2H-pyrazolo[3,4-d]pyrimidin-4-yl)-1,3-dihydro-indol-2-one] | 280 to 282 °C | < 5.00 | – | – | < 6.00 | – |
| CCOCCn1cc2c(C3C(=O)Nc4ccc(Br)cc43)nc(NC[C@@H](C)O)nc2n1 (stereo partly drawn) [Example 239, 5-Bromo-3-[2-(2-ethoxy-ethyl)-6-((R)-2-hydroxy-propylamino)-2H-pyrazolo[3,4-d]pyrimidin-4-yl]-1,3-dihydro-indol-2-one] | 298 to 300 °C | > 6.52 | > 6.52 | – | – | – |
| N#Cc1ccc2c(c1)NC(=O)C2c1ncnc2c1cnn2C1CCCC1 (stereo not shown) [Example 63, 3-(1-Cyclopentyl-1H-pyrazolo [3,4-d]pyrimidin-4-yl)-2-oxo-2,3-dihydro-1H-indole-6-carbonitrile] | 335 to 338 °C | < 5.00 | 5.52 to 6.52 | – | – | – |
| O=C1Nc2ccc(C(F)(F)F)cc2C1c1nc(NCc2ccncc2)nc2nn(C3CCCC3)cc12 (stereo not shown) [Example 246, 3-{2-Cyclopentyl-6-[(pyridin-4-ylmethyl)-amino]-2H-pyrazolo[3,4-d]pyrimidin-4-yl}-5-trifluoromethyl-1,3-dihydro-indol-2-one] | > 300 °C | – | > 6.52 | – | – | < 5.52 |
| COC[C@H]1C[C@@H](n2cnc3c(C4C(=O)Nc5ccc(C#N)cc54)ncnc32)[C@H](O)[C@@H]1O (stereo partly drawn) [Example 29, 3-[9-((1R,2S,3R,4R)-2,3-Dihydroxy-4-methoxymethyl-cyclopentyl)-9H-purin-6-yl]-2-oxo-2,3-dihydro-1H-indole-5-carbonitrile] | 230 to 236 °C (dec.) | – | – | – | – | – |
| O=C1Nc2cc(Cl)ccc2C1c1ncnc2nn(C3CCCCC3)cc12 (stereo not shown) [Example 51, 6-Chloro-3-(2-cyclohexyl-2H-pyrazolo[3,4-d]pyrimidin-4-yl)-1,3-dihydro-indol-2-one] | 299 to 303 °C | – | – | – | – | < 5.52 |
| CCOCCn1cc2c(C3C(=O)Nc4ccc(Cl)cc43)nc(NCCCNC)nc2n1 (stereo not shown) (as salt: hydrochloride) [Example 215, 5-Chloro-3-[2-(2-ethoxy-ethyl)-6-(3-methylamino-propylamino)-2H-pyrazolo [3,4-d]pyrimidin-4-yl]-1,3-dihydro-indol-2-one] | 275 to 277 °C | – | – | – | – | – |
| CCCCCn1cc2c(C3C(=O)Nc4ccc(C(F)(F)F)cc43)nc(Cl)nc2n1 (stereo not shown) | 267 °C (dec.) | – | – | – | – | – |
| CCCn1cc2c(C3(F)C(=O)Nc4ccc(Br)cc43)ncnc2n1 (stereo not shown) [Example 383, 5-Bromo-3-fluoro-3-(2-propyl-2H-pyrazolo[3,4-d]pyrimidin-4-yl)-1,3-dihydroindol-2-one] | 184 to 186 °C | – | – | – | – | – |
| Cn1cc2c(C3C(=O)Nc4ccc(Br)cc43)nc(Cl)nc2n1 (stereo not shown) [Example 300, 5-Bromo-3-(6-chloro-2-methyl-2H-pyrazolo[3,4-d]pyrimidin-4-yl)-1,3-dihydro-indol-2-one] | > 300 °C | – | – | – | – | – |
| COCCn1cc2c(C3C(=O)Nc4ccc(Br)cc43)nc(NCCC3CCCNC3)nc2n1 (stereo not shown) (as salt: hydrochloride) [Example 228, 5-Bromo-3-[2-(2-methoxy-ethyl)-6-(2-piperidin-3-yl-ethylamino)-2H-pyrazolo[3,4-d]pyrimidin-4-yl]-1,3-dihydro-indol-2-one] | 270 to 273 °C | – | – | – | – | – |
| CNCCCNc1nc(C2C(=O)Nc3ccc(Br)cc32)c2cn(CCOC)nc2n1 (stereo not shown) (as salt: hydrochloride) [Example 226, 5-Bromo-3-[2-(2-methoxy-ethyl)-6-(3-methylamino-propylamino)-2H-pyrazolo[3,4-d]pyrimdin-4-yl]-1,3-dihydro-indol-2-one] | 232 to 236 °C | – | – | – | – | – |
| CCCn1cc2c(C3C(=O)Nc4ccc(C#N)cc43)nc(Cl)nc2n1 (stereo not shown) [Example 183, 3-(6-Chloro-2-propyl-2H-pyrazolo [3,4-d]pyrimidin-4-yl)-2-oxo-2,3-dihydro-1H-indole-5-carbonitrile] | > 300 °C | – | – | – | – | – |
